Assay: Solubility of 2-mercaptothiazole estimated in a variety of solvents at room temperature
Type: physicochemical
Conditions: stirred overnight
Description: The solubility of 2-mercaptothiazole was estimated in a variety of solvents at room temperature. Large amount of 2-mercaptothiazole was added to the tested solvent. The mixture was stirred overnight. The residual solid was removed by filtration. Then the solution was analyzed by quantitative analysis vs. analytical standard to determine the concentration of the 2-mercaptothiazole.

Solubility of 2-mercaptothiazole (solvent 1,2-dichlorobenzene): 1.91 wt %
Solubility of 2-mercaptothiazole (solvent 1,2-dichloroethane): 8.43 wt %
Solubility of 2-mercaptothiazole (solvent CPME (cyclopentyl methyl ether)): 6.5 wt %
Solubility of 2-mercaptothiazole (solvent IBN (iso-butyronitrile)): 20.2 wt %
Solubility of 2-mercaptothiazole (solvent IPAc (isopropyl acetate)): 14.8 wt %
Solubility of 2-mercaptothiazole (solvent MCB (mono-chlorobenzene)): 2.4 wt %
Solubility of 2-mercaptothiazole (solvent NBN (n-butyronitrile)): 28.9 wt %
Solubility of 2-mercaptothiazole (solvent pentanol): 19.1 wt %
Solubility of 2-mercaptothiazole (solvent toluene): 2.2 wt %
Structure (SMILES): Sc1nccs1 [2-mercaptothiazole]
